Experimental data from US10377753B2, “Substituted 4-azaindoles and their use as GluN2B receptor modulators” (Janssen Pharmaceutica NV, priority 2015, dated 2019).
Structures can show the parent of a compound that is named as a salt.

Biological target: cloned human NR1/NR2B ion channels (Homo sapiens (Human), UniProt Q05586+Q13224)
Test: HNR2BC: effects of test articles on cloned human NR1/NR2B ion channels expressed in mammalian cells (FLIPR calcium flux)
Type: cell-based
Settings: cloned human NR1/NR2B, Table 5
How it was run: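 Compounds were added to dye-loaded cells for 5 min with fluorescence monitored for agonism, followed by co-agonists (glutamate ~EC80, glycine 10 μM saturating) for 5 min. Cells stably expressed inducible human NR1/NR2B, and the buffer was pH 7.4. The FLIPR Ca2+ flux signal was normalized against control wells.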

Sequence of cloned human NR1/NR2B ion channels (Q13224 27-1484, other chains not shown): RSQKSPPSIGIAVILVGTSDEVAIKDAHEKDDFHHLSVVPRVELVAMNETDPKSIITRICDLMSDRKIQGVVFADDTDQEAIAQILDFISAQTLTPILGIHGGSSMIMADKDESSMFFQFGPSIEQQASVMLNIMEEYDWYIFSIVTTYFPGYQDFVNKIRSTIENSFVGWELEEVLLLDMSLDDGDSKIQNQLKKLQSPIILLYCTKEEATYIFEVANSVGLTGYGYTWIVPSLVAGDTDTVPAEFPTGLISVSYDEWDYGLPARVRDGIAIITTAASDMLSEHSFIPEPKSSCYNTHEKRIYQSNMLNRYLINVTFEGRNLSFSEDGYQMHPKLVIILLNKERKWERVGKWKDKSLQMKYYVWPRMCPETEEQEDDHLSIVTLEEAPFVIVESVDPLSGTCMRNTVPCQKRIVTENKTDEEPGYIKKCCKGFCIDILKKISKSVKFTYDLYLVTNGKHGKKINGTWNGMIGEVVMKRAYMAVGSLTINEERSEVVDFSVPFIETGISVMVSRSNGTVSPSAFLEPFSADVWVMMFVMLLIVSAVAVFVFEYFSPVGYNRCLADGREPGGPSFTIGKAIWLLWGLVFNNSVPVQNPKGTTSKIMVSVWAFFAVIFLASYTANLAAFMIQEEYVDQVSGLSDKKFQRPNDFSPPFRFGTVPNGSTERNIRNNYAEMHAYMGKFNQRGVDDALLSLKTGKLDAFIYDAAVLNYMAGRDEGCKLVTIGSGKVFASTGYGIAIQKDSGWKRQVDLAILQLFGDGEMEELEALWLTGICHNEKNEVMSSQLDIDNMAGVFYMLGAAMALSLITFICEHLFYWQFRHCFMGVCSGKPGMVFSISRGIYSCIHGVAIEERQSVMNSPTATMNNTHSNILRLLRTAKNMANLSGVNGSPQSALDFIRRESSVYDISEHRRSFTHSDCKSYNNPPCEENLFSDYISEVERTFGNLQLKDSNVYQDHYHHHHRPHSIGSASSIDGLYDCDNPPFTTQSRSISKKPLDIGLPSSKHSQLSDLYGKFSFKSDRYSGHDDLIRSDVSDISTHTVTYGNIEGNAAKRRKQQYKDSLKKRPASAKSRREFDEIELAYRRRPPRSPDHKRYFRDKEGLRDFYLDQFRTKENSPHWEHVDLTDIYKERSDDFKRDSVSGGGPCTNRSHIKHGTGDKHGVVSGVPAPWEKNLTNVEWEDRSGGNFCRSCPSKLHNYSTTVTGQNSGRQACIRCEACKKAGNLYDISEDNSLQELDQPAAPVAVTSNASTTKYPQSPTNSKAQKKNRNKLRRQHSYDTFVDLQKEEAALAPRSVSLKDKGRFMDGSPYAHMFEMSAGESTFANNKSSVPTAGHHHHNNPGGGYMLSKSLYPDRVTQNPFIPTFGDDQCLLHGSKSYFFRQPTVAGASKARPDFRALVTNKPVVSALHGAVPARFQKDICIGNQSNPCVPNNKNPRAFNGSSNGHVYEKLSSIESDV

IC50 [nM]	SMILES
794	Cc1cc(-c2cnc3ccn(Cc4cccnc4)c3c2)ccc1F [Example 172, 6-(4-Fluoro-3-methyl-phenyl)-1-(3-pyridylmethyl)pyrrolo[3,2-b]pyridine trifluoroacetate salt]
158	Cc1cc(-c2cnc3ccn(CC4CC4)c3c2)ccc1F [Example 174, 1-(Cyclopropylmethyl)-6-(4-fluoro-3-methyl-phenyl)pyrrolo[3,2-b]pyridine trifluoroacetate salt]
31.6	Cc1cc(-c2cnc3c(Cl)cn(CC(=O)NC4CC4)c3c2)ccc1F [Example 176, 2-[3-Chloro-6-(4-fluoro-3-methyl-phenyl)pyrrolo[3,2-b]pyridin-1-yl]-N-cyclopropyl-acetamide trifluoroacetate salt]
50.1	Cc1cc(-c2cnc3ccn(Cc4ccncc4)c3c2)ccc1F [Example 179, 6-(4-Fluoro-3-methyl-phenyl)-1-(4-pyridylmethyl)pyrrolo[3,2-b]pyridine trifluoroacetate salt]
794	Cc1cc(-c2cnc3ccn(CCn4cccn4)c3c2)ccc1F [Example 181, 6-(4-Fluoro-3-methyl-phenyl)-1-(2-pyrazol-1-ylethyl)pyrrolo[3,2-b]pyridine trifluoroacetate salt]
3980	O=C(Cn1cc(F)c2ncc(-c3ccc(Cl)s3)cc21)N1CCC1 [Example 182, 1-(Azetidin-1-yl)-2-[6-(5-chloro-2-thienyl)-3-fluoro-pyrrolo[3,2-b]pyridin-1-yl]ethanone]
31.6	Cc1cc(-c2cnc3ccn(Cc4ncccn4)c3c2)ccc1F [Example 183, 6-(4-Fluoro-3-methyl-phenyl)-1-(pyrimidin-2-ylmethyl)pyrrolo[3,2-b]pyridine trifluoroacetate salt]
100	Cc1cc(-c2cnc3c(F)cn(CC(=O)N4CC(F)(F)C4)c3c2)ccc1F [Example 185, 1-(3,3-Difluoroazetidin-1-yl)-2-[3-fluoro-6-(4-fluoro-3-methyl-phenyl)pyrrolo[3,2-b]pyridin-1-yl]ethanone]
39.8	Cc1cc(-c2cnc3ccn(CC(=O)C4CC4)c3c2)ccc1F [Example 186, 1-Cyclopropyl-2-[6-(4-fluoro-3-methyl-phenyl)pyrrolo[3,2-b]pyridin-1-yl]ethanone trifluoroacetate salt]
50.1	Cc1cc(-c2cnc3ccn(CC(=O)C(C)C)c3c2)ccc1F [Example 187, 1-[6-(4-Fluoro-3-methyl-phenyl)pyrrolo[3,2-b]pyridin-1-yl]-3-methyl-butan-2-one trifluoroacetate salt]
50.1	Cc1cc(-c2cnc3ccn(CC(=O)N4CCC(O)CC4)c3c2)ccc1F [Example 188, 2-[6-(4-Fluoro-3-methyl-phenyl)pyrrolo[3,2-b]pyridin-1-yl]-1-(4-hydroxy-1-piperidyl)ethanone trifluoroacetate salt]
251	COC1CCN(C(=O)Cn2ccc3ncc(-c4ccc(F)c(C)c4)cc32)CC1 [Example 190, 2-[6-(4-Fluoro-3-methyl-phenyl)pyrrolo[3,2-b]pyridin-1-yl]-1-(4-methoxy-1-piperidyl)ethanone trifluoroacetate salt]
316	Cc1cc(-c2cnc3ccn(CC(=O)N4CCC(F)CC4)c3c2)ccc1F [Example 191, 2-[6-(4-Fluoro-3-methyl-phenyl)pyrrolo[3,2-b]pyridin-1-yl]-1-(4-fluoro-1-piperidyl)ethanone trifluoroacetate salt]
79.4	Cc1cc(-c2cnc3ccn(CC(=O)N4CCC(CF)CC4)c3c2)ccc1F [Example 192, 2-[6-(4-Fluoro-3-methyl-phenyl)pyrrolo[3,2-b]pyridin-1-yl]-1-[4-(fluoromethyl)-1-piperidyl]ethanone trifluoroacetate salt]
1580	Cc1cc(-c2cnc3ccn(CC(=O)N4CCOC(C)(C)C4)c3c2)ccc1F [Example 197, 1-(2,2-Dimethylmorpholin-4-yl)-2-[6-(4-fluoro-3-methyl-phenyl)pyrrolo[3,2-b]pyridin-1-yl]ethanone trifluoroacetate salt]
251	Cc1cc(-c2cnc3ccn(CC(=O)N4CCCC4(C)C)c3c2)ccc1F [Example 200, 1-(2,2-Dimethylpyrrolidin-1-yl)-2-[6-(4-fluoro-3-methyl-phenyl)pyrrolo[3,2-b]pyridin-1-yl]ethanone trifluoroacetate salt]
3980	Cc1cc(-c2cnc3ccn(CC(=O)N4CC[C@@H](F)C4)c3c2)ccc1F [Example 201, 2-[6-(4-Fluoro-3-methyl-phenyl)pyrrolo[3,2-b]pyridin-1-yl]-1-[(3R)-3-fluoropyrrolidin-1-yl]ethanone trifluoroacetate salt]
126	CC1(O)CN(C(=O)Cn2ccc3ncc(-c4ccc(F)cc4)cc32)C1 [Example 202, 2-[6-(4-Fluorophenyl)pyrrolo[3,2-b]pyridin-1-yl]-1-(3-hydroxy-3-methyl-azetidin-1-yl)ethanone]
398	O=C(Cn1ccc2ncc(-c3ccc(F)cc3)cc21)N1CC(O)(C(F)(F)F)C1 [Example 203, 2-[6-(4-Fluorophenyl)pyrrolo[3,2-b]pyridin-1-yl]-1-[3-hydroxy-3-(trifluoromethyl)azetidin-1-yl]ethanone]
1580	O=C(Cn1ccc2ncc(-c3ccc(F)cc3)cc21)N1CC(F)C1 [Example 204, 1-(3-Fluoroazetidin-1-yl)-2-[6-(4-fluorophenyl)pyrrolo[3,2-b]pyridin-1-yl]ethanone]

IC50 [nM]	SMILES
50.1	CN(C(=O)Cn1ccc2ncc(-c3ccc(F)cc3)cc21)C1CC1 [Example 205, N-Cyclopropyl-2-[6-(4-fluorophenyl)pyrrolo[3,2-b]pyridin-1-yl]-N-methyl-acetamide]
316	O=C(Cn1ccc2ncc(-c3ccc(F)cc3)cc21)N1CC(CO)C1 [Example 206, 2-[6-(4-Fluorophenyl)pyrrolo[3,2-b]pyridin-1-yl]-1-[3-(hydroxymethyl)azetidin-1-yl]ethanone]
316	COC1CN(C(=O)Cn2ccc3ncc(-c4ccc(F)cc4)cc32)C1 [Example 207, 2-[6-(4-Fluorophenyl)pyrrolo[3,2-b]pyridin-1-yl]-1-(3-methoxyazetidin-1-yl)ethanone]
316	Cc1cc(-c2cnc3ccn(CC(=O)N4CC5(CC5)C4)c3c2)ccc1F [Example 208, 1-(5-Azaspiro[2.3]hexan-5-yl)-2-[6-(4-fluoro-3-methyl-phenyl)pyrrolo[3,2-b]pyridin-1-yl]ethanone trifluoroacetate salt]
200	Cc1cc(-c2cnc3ccn(CC(=O)N4CCC(C)(O)CC4)c3c2)ccc1F [Example 209, 2-[6-(4-Fluoro-3-methyl-phenyl)pyrrolo[3,2-b]pyridin-1-yl]-1-(4-hydroxy-4-methyl-1-piperidyl)ethanone trifluoroacetate salt]
398	O=C(Cn1ccc2ncc(-c3ccc(F)cc3)cc21)N1CC(O)C1 [Example 211, 2-[6-(4-Fluorophenyl)pyrrolo[3,2-b]pyridin-1-yl]-1-(3-hydroxyazetidine-1-yl)ethanone]
316	N#CC1CN(C(=O)Cn2ccc3ncc(-c4ccc(F)cc4)cc32)C1 [Example 212, 1-[2-[6-(4-Fluorophenyl)pyrrolo[3,2-b]pyridin-1-yl]acetyl]azetidine-3-carbonitrile]
631	O=C(Cn1ccc2ncc(-c3ccc(F)cc3)cc21)N1CC(F)(F)C1 [Example 213, 1-(3,3-Difluoroazetidin-1-yl)-2-[6-(4-fluorophenyl)pyrrolo[3,2-b]pyridin-1-yl]ethanone]
100	CC1CN(C(=O)Cn2ccc3ncc(-c4ccc(F)cc4)cc32)C1 [Example 214, 2-[6-(4-Fluorophenyl)pyrrolo[3,2-b]pyridin-1-yl]-1-(3-methylazetidin-1-yl)ethanone]
158	CC1(C)CN(C(=O)Cn2ccc3ncc(-c4ccc(F)cc4)cc32)C1 [Example 215, 1-(3,3-Dimethylazetidin-1-yl)-2-[6-(4-fluorophenyl)pyrrolo[3,2-b]pyridin-1-yl]ethanone]
1260	O=C1CCN(C(=O)Cn2ccc3ncc(-c4ccc(F)cc4)cc32)C1 [Example 216, 1-[2-[6-(4-Fluorophenyl)pyrrolo[3,2-b]pyridin-1-yl]acetyl]pyrrolidin-3-one trifluoroacetate salt]
316	O=C(Cn1ccc2ncc(-c3ccc(F)cc3)cc21)N1CCC(F)(F)C1 [Example 217, 1-(3,3-Difluoropyrrolidin-1-yl)-2-[6-(4-fluorophenyl)pyrrolo[3,2-b]pyridin-1-yl]ethanone]
501	Cc1cccc(-c2cnc3ccn(CC(=O)C4CC4)c3c2)c1 [Example 219, 1-Cyclopropyl-2-[6-(m-tolyl)pyrrolo[3,2-b]pyridin-1-yl]ethanone]
50.1	O=C(Cn1ccc2ncc(-c3ccccc3)cc21)C1CC1 [Example 220, 1-Cyclopropyl-2-(6-phenylpyrrolo[3,2-b]pyridin-1-yl)ethanone]
79.4	O=C(Cn1ccc2ncc(-c3cccc(F)c3)cc21)C1CC1 [Example 221, 1-Cyclopropyl-2-[6-(3-fluorophenyl)pyrrolo[3,2-b]pyridin-1-yl]ethanone]
79.4	O=C(Cn1ccc2ncc(-c3ccc(F)cc3)cc21)C1CC1 [Example 222, 1-Cyclopropyl-2-[6-(4-fluorophenyl)pyrrolo[3,2-b]pyridin-1-yl]ethanone]
79.4	Cc1c(F)ccc(-c2cnc3ccn(CC(=O)C(C)C)c3c2)c1C [Example 223, 1-[6-(4-Fluoro-2,3-dimethyl-phenyl)pyrrolo[3,2-b]pyridin-1-yl]-3-methyl-butan-2-one]
398	CCc1cccc(-c2cnc3ccn(CC(=O)C(C)C)c3c2)c1 [Example 224, 1-[6-(3-Ethylphenyl)pyrrolo[3,2-b]pyridin-1-yl]-3-methyl-butan-2-one]
79.4	Cc1cccc(-c2cnc3ccn(CC(=O)C(C)C)c3c2)c1C [Example 225, 1-[6-(2,3-Dimethylphenyl)pyrrolo[3,2-b]pyridin-1-yl]-3-methyl-butan-2-one]
